Measured values from ChEMBL document CHEMBL1139424, “Design, synthesis, and acetylcholinesterase inhibitory activity of novel coumarin analogues” (Bioorg Med Chem, 2008).

Molecular target: Acetylcholinesterase (Electrophorus electricus, UniProt O42275)
Assay: Inhibition of Electrophorus electricus brain AChE by Ellman's method

Chain of Acetylcholinesterase (O42275 whole entry): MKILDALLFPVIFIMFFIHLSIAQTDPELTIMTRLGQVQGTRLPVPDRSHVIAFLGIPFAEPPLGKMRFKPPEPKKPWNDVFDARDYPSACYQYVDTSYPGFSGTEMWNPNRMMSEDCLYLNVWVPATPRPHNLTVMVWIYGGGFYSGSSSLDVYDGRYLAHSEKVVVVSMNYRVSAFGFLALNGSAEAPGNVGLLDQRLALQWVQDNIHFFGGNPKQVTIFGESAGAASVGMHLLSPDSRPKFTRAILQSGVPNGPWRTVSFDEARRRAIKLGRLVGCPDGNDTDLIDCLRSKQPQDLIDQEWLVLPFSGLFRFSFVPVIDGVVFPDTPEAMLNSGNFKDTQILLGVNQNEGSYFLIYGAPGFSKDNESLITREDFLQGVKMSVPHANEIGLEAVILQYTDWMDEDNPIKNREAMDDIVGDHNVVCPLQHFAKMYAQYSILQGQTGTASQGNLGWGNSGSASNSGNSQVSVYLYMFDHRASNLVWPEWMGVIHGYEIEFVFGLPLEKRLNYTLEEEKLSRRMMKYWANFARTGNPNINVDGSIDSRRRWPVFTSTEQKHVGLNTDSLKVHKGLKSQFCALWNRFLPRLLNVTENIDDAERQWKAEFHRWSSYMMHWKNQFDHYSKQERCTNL

Row | SMILES | IC50 [µM]
1 | Cc1ccc2oc(=O)cc(N3CCN(C)CC3)c2c1 | 901
2 | O=C(c1ccc(Cl)cc1)N1CCN(C(=O)c2cc3ccccc3oc2=O)CC1 | 21
3 | Cc1ccccc1N1CCN(C(=O)c2cc3ccccc3oc2=O)CC1 | 6.7
4 | Cc1ccc2oc(=O)cc(N3CCN(c4cc(Cl)ccc4Cl)CC3)c2c1 | 827
5 | COc1ccccc1N1CCN(C(=O)c2cc3ccccc3oc2=O)CC1 | 11
6 | Cc1ccc2oc(=O)cc(N3CCN(C(=O)c4ccccc4Cl)CC3)c2c1 | 21
7 | O=C(c1ccccc1Cl)N1CCN(C(=O)c2cc3ccccc3oc2=O)CC1 | 26
8 | O=C(c1ccc([N+](=O)[O-])cc1)N1CCN(C(=O)c2cc3ccccc3oc2=O)CC1 | 34
9 | COc1ccccc1N1CCN(c2cc(=O)oc3ccc(C)cc23)CC1 | 249
10 | O=C(c1cc2ccccc2oc1=O)N1CCN(c2cc(Cl)ccc2Cl)CC1 | 14
11 | Cc1ccc(N2CCN(c3cc(=O)oc4ccc(C)cc34)CC2)cc1 | 61
12 | O=C(c1cc2ccccc2oc1=O)N1CCN(c2ccccc2)CC1 | 9.3
13 | Cc1ccc2oc(=O)cc(N3CCN(C(=O)c4ccc(Cl)cc4)CC3)c2c1 | 16
14 | O=C(c1ccccc1)N1CCN(C(=O)c2cc3ccccc3oc2=O)CC1 | 15
15 | Cc1ccc2oc(=O)cc(N3CCN(c4ccccc4C)CC3)c2c1 | 7.9
16 | Cc1ccc2oc(=O)cc(N3CCN(c4ccccc4)CC3)c2c1 | 4.5
17 | O=C(c1cc2ccccc2oc1=O)N1CCN(c2ccc(Cl)cc2)CC1 | 98
18 | Cc1ccc2oc(=O)cc(N3CCN(c4ccc(Cl)cc4)CC3)c2c1 | 808
19 | Cc1ccc2oc(=O)cc(N3CCOCC3)c2c1 | 875
20 | Cc1ccc(C(=O)N2CCN(c3cc(=O)oc4ccc(C)cc34)CC2)cc1 | 5.3
21 | O=c1cc(Cl)c2cc(CN3CCN(c4ccccc4)CC3)ccc2o1 | 19
22 | COc1ccc(N2CCN(C(=O)c3cc4ccccc4oc3=O)CC2)cc1 | 7.5
23 | Cc1ccc2oc(=O)cc(N3CCN(C(=O)c4ccccc4)CC3)c2c1 | 7.4
24 | O=C(c1cc2ccccc2oc1=O)N1CCOCC1 | 101
25 | Cc1ccc(C(=O)N2CCN(C(=O)c3cc4ccccc4oc3=O)CC2)cc1 | 18
26 | COc1ccc(N2CCN(c3cc(=O)oc4ccc(C)cc34)CC2)cc1 | 18
27 | Cc1ccc(N2CCN(C(=O)c3cc4ccccc4oc3=O)CC2)cc1 | 7.6
